# Several values for one entry are separate records, joined by “and”; a condition that tells them apart may be missing. Identical values can stand only once.
# Key:
# [1] = test system: diabetic nephropathy patients; conditions: 52 weeks of treatment; cited from earlier work
# [2] = test system: 5/6 nephrectomized 129X1/SvJ mice; assay: 5/6 nephrectomy model (comparison with ET1/AT1 dual inhibitor); assay type: in vivo, mouse; conditions: for UAER / UACR: mean ± SEM; for UACR (mg/mg) at Week 1 / UACR (mg/mg) at Week 4 / UAER (mg/day) at Week 1 / UAER (mg/day) at Week 2 / UAER (mg/day) at Week 4: individual mice; for UACR: CCX872 90 mg/kg s.c. once daily, RAAS blocker 5 mg/kg orally once daily, Sparsentan 90 mg/kg orally twice daily
# Method: (§1) Chemotaxis, calcium mobilization, and radio-ligand binding assays were conducted as previously described. Inhibition values (IC50) were calculated using non-linear regression with a one-site competition model (GraphPad Prism, GraphPad Software, La Jolla, CA). Urinary albumin was measured by ELISA (Bethyl Labs, Montgomery, TX). Urinary and serum creatinine was measured by LC-MS/MS at ChemoCentryx. The urinary albumin excretion rate (UAER) was calculated as micrograms per 24 h. Blood urea nitrogen (BUN) was measured by Antech Diagnostics (Morrisville, NC). Serum cystatin C was measured by ELISA (R&D Systems, Minneapolis, MN). The albumin to creatinine ratio (ACR) was calculated as micrograms of albumin per milligram of creatinine.
# (§2) 5/6 nephrectomy mice on the 129X1/SvJ background were obtained from Jackson Laboratories, and were received at ChemoCentryx after the surgery was performed at JAX. Under isoflurane anesthesia, two-thirds of the left kidney mass was removed at 5–6 weeks of age. Then, after 7 to 10 days, a right unilateral nephrectomy was performed. The mice were fed a standard chow and had free access to water. Three weeks after the 5/6 nephrectomy, the mice were grouped to ensure a similar starting UAER in each treatment group. CCX872 or its vehicle were dosed subcutaneously once daily formulated in 1% HPMC. The RAAS blocker Candesartan (AK Scientific, Union City, CA) and its vehicle were dosed orally once daily at 5 mg/kg formulated in water. Sparsentan, the dual-acting receptor antagonist for endothelin (A type) and angiotensin II receptors (Type 1) was synthesized at ChemoCentryx and was dosed orally twice daily at 90 mg/kg formulated in 1% HPMC. The mice were housed individually in metabolic cages for quantitative collection of urinary albumin and creatinine.
# Fig 4 Relative efficacy of CCR2, RAAS, and endothelin receptor blockade in the 5/6 nephrectomy model as assessed by UACR (mg/mg). Mice underwent a 5/6 nephrectomy as described in Methods. Three weeks post-surgery the mice were randomized to the indicated groups for the study period of 4 weeks. Urine was collected for measurement of UACR at the indicated time points, as described in Methods. Error bars represent standard error of the mean. N = 10/group at week 1, and N = 6 at week 4. p values were calculated between each drug-treated group and vehicle treated animals (asterisk), or between the CCX872/RAAS blocker combination and RAAS blocker alone (octothorpe) using student’s t-test (GraphPad Prism).
# patients with FSGS = test system: patients with FSGS; design: method as in announced by Retrophin; conditions: 8-week time point, 109 patients with FSGS, compared to irbesartan; ref announced by Retrophin; cited from earlier work
# [3] = test system: Adriamycin challenged female Balb/c mice; assay: Adriamycin induced nephropathy model; assay type: in vivo, mouse; conditions: for UAER: mean ± SEM
# Method: Chemotaxis, calcium mobilization, and radio-ligand binding assays were conducted as previously described. Inhibition values (IC50) were calculated using non-linear regression with a one-site competition model (GraphPad Prism, GraphPad Software, La Jolla, CA). Urinary albumin was measured by ELISA (Bethyl Labs, Montgomery, TX). Urinary and serum creatinine was measured by LC-MS/MS at ChemoCentryx. The urinary albumin excretion rate (UAER) was calculated as micrograms per 24 h. Blood urea nitrogen (BUN) was measured by Antech Diagnostics (Morrisville, NC). Serum cystatin C was measured by ELISA (R&D Systems, Minneapolis, MN). The albumin to creatinine ratio (ACR) was calculated as micrograms of albumin per milligram of creatinine. These experiments were performed using female Balb/c mice (Jackson Laboratories, Bar Harbor, Maine). The mice were kept on standard chow and had free access to water. At age of 10 weeks, 7.5 mg/kg Adriamycin (Selleck Chemicals, Houston, TX) or saline (control) was injected via tail vein in isoflurane-anesthetized animals (day 0). CCX872 and/or vehicle were dosed subcutaneously once daily at 90 mg/kg formulated in 1% HPMC. The RAAS blocker Candesartan (AK Scientific, Union City, CA) and its vehicle were dosed orally once daily at 5 mg/kg, formulated in water. All dosing started 2 hours prior Adriamycin challenge. The mice were housed individually in metabolic cages for quantitative collection of urinary albumin and creatinine.  Fig 2 CCX872 improves renal function as assessed by UACR, serum creatinine and BUN in adriamycin challenged mice. Mice were challenged with Adriamycin as described in Methods. Test compound treatment was begun one hour prior to the Adriamycin challenge. Urine was collected for measurement of UAER (S3 Table) and creatinine at the indicated time points, and UACR was calculated as described in Methods. Serum creatinine and BUN were measured at time of terminal bleed after two weeks of treatment. Error bars represent standard error of the mean. N = 10/group at week 1, and N = 8 at week 2. p values were calculated on each treated group to vehicle treated animals using student’s t-test (GraphPad Prism).
# [4] = test system: Adriamycin challenged female Balb/c mice; assay: Adriamycin induced nephropathy model; assay type: in vivo, mouse; conditions: individual mice
# [5] = test system: 5/6 nephrectomized 129X1/SvJ mice; assay: 5/6 nephrectomy model (CCX872, RAAS blocker, combination); assay type: in vivo, mouse; conditions: for BUN / Serum Creatinine / Serum Cystatin C: terminal bleed; for UACR: CCX872 90 mg/kg s.c., RAAS blocker 5 mg/kg orally, once daily
# Method: as §1
# as §2, with “creatinine. […]” for “creatinine.”
# Fig 3 CCX872 improves renal function as assessed by UACR, serum creatinine, BUN and cystatin C in 5/6 nephrectomized mice. Mice underwent a 5/6 nephrectomy as described in Methods. Three weeks post-surgery the mice were randomized to the groups indicated above for the study period of 4 weeks. Urine was collected for measurement of albumin and creatinine at the indicated time points, and UACR was calculated as described in Methods. Serum creatinine, BUN and Cystatin C were measured at time of terminal bleed after four weeks of treatment. Error bars represent standard error of the mean. N = 10/group, and N = 6 at week 3. p values were calculated between each drug-treated group and vehicle treated animals (asterisk), or between CCX872/RAAS blocker combination and RAAS blocker alone (octothorpe) using student’s t-test (GraphPad Prism).
# [6] = terminal bleed, individual mice
# [7] = four-week time point, mean ± SEM
# [8] = individual mice, listed as RAASi
compound,measurement,setting,value
Cc1cnc(C(=O)c2ncnc3[nH]ccc23)c(NS(=O)(=O)c2ccc(Cl)c(C(F)(F)F)c2)c1 [CCX140-B],proteinuria,[1],decreased and sustained reduction of proteinuria
"CCCCC1=NC2(CCCC2)C(=O)N1Cc1ccc(-c2ccccc2S(=O)(=O)Nc2noc(C)c2C)c(COCC)c1 [ET1/AT2 Dual Blocker, Sparsentan]",UAER,[2]; Week 1,"2.64 ± 0.75, p=0.036 mg/day"
same,UAER,[2]; Week 2,"1.54 ± 2.15, p=0.01 mg/day"
same,UAER,[2]; Week 4,"1.15 ± 1.47, p=0.001 mg/day"
same,UACR (mg/mg) at Week 1,[2]; listed as ET1/AT1 Dual,1.081 mg/mg and 2.162 mg/mg and 2.864 mg/mg and 2.81 mg/mg and 3.047 mg/mg and 2.101 mg/mg and 2.214 mg/mg and 0.6904 mg/mg and 5.004 mg/mg
same,UACR (mg/mg) at Week 4,[2]; listed as ET1/AT1 Dual,2.388 mg/mg and 0.4973 mg/mg and 0.675 mg/mg and 0.2626 mg/mg and 0.5926 mg/mg and 2.095 mg/mg and 0.7726 mg/mg
same,UAER (mg/day) at Week 1,[2]; listed as ET1/AT1 Dual,0.8511 mg/day and 1.523 mg/day and 1.648 mg/day and 2.037 mg/day and 2.769 mg/day and 1.544 mg/day and 1.531 mg/day and 0.6428 mg/day and 5.6 mg/day
same,UAER (mg/day) at Week 2,[2]; listed as ET1/AT1 Dual,1.304 mg/day and 1.518 mg/day and 4.44 mg/day and 2.237 mg/day and 1.797 mg/day and 4.071 mg/day and 1.476 mg/day and 0.485 mg/day and 1.88 mg/day
same,UAER (mg/day) at Week 4,[2]; listed as ET1/AT1 Dual,1.009 mg/day and 1.391 mg/day and 0.6452 mg/day and 0.283 mg/day and 0.9648 mg/day and 0.8066 mg/day and 1.065 mg/day
same,UACR reduction vs vehicle,[2]; week one,93.5%
same,UACR,[2]; week one,2.44 ± 0.42 mg/mg
same,proteinuria (primary endpoint),patients with FSGS,statistically significant reduction in proteinuria as compared to irbesartan
"CCOc1nc2cccc(C(=O)O)c2n1Cc1ccc(-c2ccccc2-c2nnn[nH]2)cc1 [RAAS Blocker, Candesartan]",UAER,[3]; Week 1,"39.46 ± 14.14, p=0.16 mg/day"
same,UAER,[3]; Week 2,"66.87 ± 23.99, p=0.52 mg/day"
same,BUN,[3]; [6],100 mg/dL and 80 mg/dL and 65 mg/dL and 70 mg/dL and 85 mg/dL and 125 mg/dL and 75 mg/dL
same,Serum Creatinine,[3]; [6],0.927 µg/mL and 1.08 µg/mL and 1.05 µg/mL and 1.06 µg/mL and 0.956 µg/mL and 1.21 µg/mL and 0.91 µg/mL and 1.09 µg/mL and 1.14 µg/mL and 1.35 µg/mL
same,UAER,[2]; Week 1,"9.38 ± 7.70, p=0.27 mg/day"
same,UAER,[2]; Week 2,"7.72 ± 6.37, p=0.06 mg/day"
same,UAER,[2]; Week 4,"1.74 ± 2.49, p=0.02 mg/day"
same,UACR (mg/mg) at Week 1,[2],0.2531 mg/mg and 1.465 mg/mg and 2.285 mg/mg and 73.9074 mg/mg and 1.319 mg/mg and 7.089 mg/mg and 0.4551 mg/mg and 1.07 mg/mg
same,UACR (mg/mg) at Week 4,[2],0.751 mg/mg and 2.804 mg/mg and 0.2303 mg/mg and 0.9337 mg/mg and 0.4088 mg/mg and 0.9456 mg/mg
same,UAER (mg/day) at Week 1,[2],0.1519 mg/day and 0.9615 mg/day and 2.137 mg/day and 63.0549 mg/day and 1.2792 mg/day and 6.0897 mg/day and 0.4778 mg/day and 0.9119 mg/day
same,UAER (mg/day) at Week 2,[2],0.4333 mg/day and 5.515 mg/day and 1.464 mg/day and 44.8051 mg/day and 0.7469 mg/day and 7.145 mg/day and 0.2974 mg/day and 1.3574 mg/day
same,UAER (mg/day) at Week 4,[2],1.13 mg/day and 3.156 mg/day and 0.298 mg/day and 1.221 mg/day and 0.2117 mg/day and 1.028 mg/day
same,UACR,[2]; week one,10.98 ± 9.02 mg/mg
same,UACR (mg/mg) at Week 1,[4],20.0842 mg/mg and 22.2965 mg/mg and 25.3406 mg/mg and 40.1693 mg/mg and 41.555 mg/mg and 302.958 mg/mg and 55.6444 mg/mg and 187.49 mg/mg and 117.091 mg/mg and 7.322 mg/mg
same,UACR (mg/mg) at Week 2,[4],56.294 mg/mg and 76.9257 mg/mg and 96.611 mg/mg and 232.005 mg/mg and 248.91 mg/mg and 18.6549 mg/mg and 102.568 mg/mg and 35.7503 mg/mg
same,UAER (mg/day) at Week 1,[4],10.1862 mg/day and 10.9954 mg/day and 11.0332 mg/day and 14.9575 mg/day and 18.3446 mg/day and 113.025 mg/day and 29.5364 mg/day and 126.741 mg/day and 54.0627 mg/day and 5.677 mg/day
same,UAER (mg/day) at Week 2,[4],28.1393 mg/day and 36.5424 mg/day and 35.6435 mg/day and 176.989 mg/day and 173.035 mg/day and 14.0491 mg/day and 53.4766 mg/day and 17.1116 mg/day
same,UAER,"[5]; Week 1, mean ± SEM","8.27± 1.89, p=0.03 mg/day"
same,UAER,"[5]; Week 2, mean ± SEM","3.62 ± 1.63, p=0.03 mg/day"
same,UAER,"[5]; Week 3, mean ± SEM","3.32 ± 0.76, p<0.0001 mg/day"
same,BUN,[5]; [7],247.0 ± 16.42 mg/dL
same,Serum Creatinine,[5]; [7],2.78 ± 0.27 µg/mL
same,UAER (mg/day) at Week 1,[5]; individual mice,2.15 mg/day and 4.699 mg/day and 15.5467 mg/day and 16.4212 mg/day and 15.0186 mg/day and 0.6806 mg/day and 9.638 mg/day and 3.148 mg/day and 4.462 mg/day and 10.9401 mg/day
same,UAER (mg/day) at Week 2,[5]; individual mice,0.7796 mg/day and 9.402 mg/day and 12.4793 mg/day and 1.127 mg/day and 0.5679 mg/day and 1.491 mg/day and 1.407 mg/day and 1.719 mg/day
same,UAER (mg/day) at Week 3,[5]; individual mice,5.801 mg/day and 4.3025 mg/day and 1.247 mg/day and 2.019 mg/day and 1.844 mg/day and 4.699 mg/day
same,UACR (mg/mg) at Week 1,[5]; [8],5.748 mg/mg and 5.722 mg/mg and 28.9118 mg/mg and 21.9395 mg/mg and 21.4656 mg/mg and 1.415 mg/mg and 15.8208 mg/mg and 5.683 mg/mg and 7.266 mg/mg and 18.781 mg/mg
same,UACR (mg/mg) at Week 3,[5]; [8],7.871 mg/mg and 8.029 mg/mg and 3.677 mg/mg and 3.863 mg/mg and 2.8993 mg/mg and 7.734 mg/mg
same,Serum Cystatin C,[5]; individual mice,0.9323 µg/mL and 2.095 µg/mL and 2.201 µg/mL and 1.815 µg/mL and 2.053 µg/mL and 1.1273 µg/mL and 1.429 µg/mL and 1.517 µg/mL and 1.562 µg/mL and 2.118 µg/mL
same,BUN,[5]; [8],245 mg/dL and 215 mg/dL and 265 mg/dL and 205 mg/dL and 330 mg/dL and 255 mg/dL and 170 mg/dL and 210 mg/dL
same,Serum Creatinine,[5]; [8],2.46 µg/mL and 1.88 µg/mL and 2.93 µg/mL and 2.22 µg/mL and 2.77 µg/mL and 2.85 µg/mL and 2.01 µg/mL and 5.03 µg/mL and 2.87 µg/mL
same,Serum Cystatin C,[5]; mean ± SEM,1.68 ± 0.14 µg/mL
same,UACR,"[5]; week 1, mean ± SEM",13.28 ± 2.928 mg/mg
same,UACR,"[5]; week 3, mean ± SEM",5.679 ± 0.99 mg/mg

# — PMC5862408, “CCR2 antagonism leads to marked reduction in proteinuria and glomerular injury in murine models of focal segmental glomerulosclerosis (FSGS)” (PLoS ONE, 2018)
